Source: patent US9409952B2, “Peptide-compound cyclization method” (Chugai Seiyaku Kabushiki Kaisha, priority 2011, dated 2016)
Starred links: 1 amine or outer side, 2 acyl side, 3 side chain; linkers in the order of their positions; H or OH if unused. Positions of bridges follow the written chain, without caps; N, C: chain ends. Non-standard residues stand in square brackets, D forms with d. Residues, ends and D or L forms follow the SMILES beside them. *: point of attachment. Phe(4-(CH2)5CO) = O=C([C@H](Cc1ccc(CCCCCC(=O)[*:3])cc1)N[*:1])[*:2]; Phe(3-(CH2)4CO) = O=C([C@H](Cc1cccc(CCCCC(=O)[*:3])c1)N[*:1])[*:2]; NMeF = CN[C@@H](Cc1ccccc1)C(=O)O; NMeI = CC[C@H](C)[C@H](NC)C(=O)O; NMeL = CN[C@@H](CC(C)C)C(=O)O; NMeV = CN[C@H](C(=O)O)C(C)C; NMeA = CN[C@@H](C)C(=O)O; Piperidide = C1CCN(*)CC1; Sar = CNCC(=O)O; tBu = CC(C)(C)*

Key:
[1] = Metabolic stability in human hepatic microsome; format: in vitro ADME; conditions: microsomes, pH 7.4; human hepatic microsome, NADPH(+); read-out: CL NADPH(+)
[2] = PAMPA (parallel artificial membrane permeability assay); format: in vitro ADME; conditions: membrane permeation rate (Pe), 50 mM MOPSO buffer pH 6.5 with 5.0% glycocholic acid, 37° C., 18 hours; for Papp at 18 hours, 50 µM: PAMPA, read-out: iPAMPA Pe
Outline: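 Artificial membrane was 10% (w/v) egg lecithin plus 0.5% (w/v) cholesterol in dodecane on a PVDF filter. A 10 mM DMSO stock was added at 0.5% (v/v) to donor buffer (50 mM MOPSO, pH 6.5, 5.0% glycocholic acid). After 18 h at 37 °C, LC/MS or LC/UV gave donor and acceptor levels for Pe.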

C=C1CCC(=O)N[C@@H](CC(C)C)C(=O)N(C)[C@@H](CC(C)C)C(=O)N(C)[C@@H]([C@@H](C)CC)C(=O)N[C@@H](C)C(=O)N(C)[C@@H](Cc2ccccc2)C(=O)N[C@@H]([C@@H](C)O)C(=O)N(C)CC(=O)N(C)[C@@H](Cc2ccccc2)C(=O)N(C)[C@@H](CC(C)C)C(=O)N[C@H](C(=O)N2CCCCC2)Cc2ccc1cc2 [DP-864]
microsomal CLint at 1 uM [1]: 171 µL/min/mg | Papp at 18 hours, 50 µM [2]: 2.3 ×10⁻⁶ cm/s

CC[C@H](C)[C@H]1C(=O)N[C@@H](C)C(=O)N(C)[C@@H](Cc2ccccc2)C(=O)N[C@@H]([C@@H](C)O)C(=O)N(C)[C@@H](CC(C)C)C(=O)N[C@@H](Cc2ccccc2)C(=O)N(C)[C@@H](C(C)C)C(=O)N[C@H](C(=O)N2CCCCC2)Cc2ccc(cc2)CCCCCC(=O)NCC(=O)N(C)[C@@H](CC(C)C)C(=O)N1C [DP-865] (G[NMeL][NMeI]A[NMeF]T[NMeL]F[NMeV][Phe(4-(CH2)5CO)]-Piperidide; lactam N-10)
microsomal CLint at 1 uM [1]: 87 µL/min/mg | Papp at 18 hours, 50 µM [2]: 15 ×10⁻⁶ cm/s

CC[C@H](C)[C@@H]1NC(=O)CCCCCc2ccc(cc2)C[C@@H](C(=O)N2CCCCC2)NC(=O)[C@H](Cc2ccccc2)N(C)C(=O)[C@H](CC(C)C)N(C)C(=O)[C@H](C)N(C)C(=O)[C@H](Cc2ccccc2)N(C)C(=O)[C@H]([C@@H](C)O)NC(=O)[C@H](CC(C)C)N(C)C(=O)[C@H](C)N(C)C(=O)[C@H](CC(C)C)N(C)C1=O [DP-868] (I[NMeL][NMeA][NMeL]T[NMeF][NMeA][NMeL][NMeF][Phe(4-(CH2)5CO)]-Piperidide; lactam N-10)
microsomal CLint at 1 uM [1]: 61 µL/min/mg | Papp at 18 hours, 50 µM [2]: 0.24 ×10⁻⁶ cm/s

C=C1CCC(=O)N[C@@H](CC(C)C)C(=O)N2CCC[C@H]2C(=O)N(C)[C@@H](C(C)C)C(=O)N[C@@H](Cc2ccccc2)C(=O)N(C)[C@@H](Cc2ccccc2)C(=O)N(C)[C@@H](CC(C)C)C(=O)N[C@@H](C)C(=O)N(C)[C@@H]([C@@H](C)CC)C(=O)N[C@H](C(=O)N2CCCCC2)Cc2ccc1cc2 [DP-869]
microsomal CLint at 1 uM [1]: 331 µL/min/mg | Papp at 18 hours, 50 µM [2]: 0.86 ×10⁻⁶ cm/s

CC[C@H](C)[C@H]1C(=O)N[C@H](C(=O)N2CCCCC2)Cc2ccc(cc2)CCCCCC(=O)N[C@@H](CC(C)C)C(=O)N2CCC[C@H]2C(=O)N(C)[C@@H](C(C)C)C(=O)N[C@@H](Cc2ccccc2)C(=O)N(C)[C@@H](Cc2ccccc2)C(=O)N(C)[C@@H](CC(C)C)C(=O)N[C@@H](C)C(=O)N1C [DP-871] (LP[NMeV]F[NMeF][NMeL]A[NMeI][Phe(4-(CH2)5CO)]-Piperidide; lactam N-9)
microsomal CLint at 1 uM [1]: 389 µL/min/mg | Papp at 18 hours, 50 µM [2]: 1.2 ×10⁻⁶ cm/s

CC[C@H](C)[C@H]1C(=O)N[C@H](C(=O)N2CCCCC2)Cc2cccc(c2)CCCCC(=O)N[C@@H](CC(C)C)C(=O)N2CCC[C@H]2C(=O)N(C)[C@@H](C(C)C)C(=O)N[C@@H](Cc2ccccc2)C(=O)N(C)[C@@H](Cc2ccccc2)C(=O)N(C)[C@@H](CC(C)C)C(=O)N[C@@H](C)C(=O)N1C [DP-872] (LP[NMeV]F[NMeF][NMeL]A[NMeI][Phe(3-(CH2)4CO)]-Piperidide; lactam N-9)
microsomal CLint at 1 uM [1]: 397 µL/min/mg | Papp at 18 hours, 50 µM [2]: 3.1 ×10⁻⁶ cm/s

CC[C@H](C)[C@H]1C(=O)N[C@@H](C)C(=O)N(C)[C@@H](CC(C)C)C(=O)N[C@@H](COC(C)(C)C)C(=O)N(C)[C@@H](CC(C)C)C(=O)N[C@H](C(=O)N2CCCCC2)Cc2ccc(cc2)CCCCCC(=O)N[C@@H](Cc2ccccc2)C(=O)N(C)[C@@H](Cc2ccccc2)C(=O)N(C)[C@@H](CC(C)C)C(=O)N[C@@H]([C@@H](C)O)C(=O)N(C)[C@@H](C)C(=O)N1C [DP-873] (F[NMeF][NMeL]T[NMeA][NMeI]A[NMeL]S(tBu)[NMeL][Phe(4-(CH2)5CO)]-Piperidide; lactam N-11)
microsomal CLint at 1 uM [1]: 39 µL/min/mg | iPAMPA Pe [2]: 1.0E−07

CC[C@H](C)[C@H]1C(=O)N[C@@H](C)C(=O)N(C)[C@@H](CC(C)C)C(=O)N[C@@H](COC(C)(C)C)C(=O)N(C)[C@@H](CC(C)C)C(=O)N[C@H](C(=O)N2CCCCC2)Cc2cccc(c2)CCCCC(=O)N[C@@H](Cc2ccccc2)C(=O)N(C)[C@@H](Cc2ccccc2)C(=O)N(C)[C@@H](CC(C)C)C(=O)N[C@@H]([C@@H](C)O)C(=O)N(C)[C@@H](C)C(=O)N1C [DP-874] (F[NMeF][NMeL]T[NMeA][NMeI]A[NMeL]S(tBu)[NMeL][Phe(3-(CH2)4CO)]-Piperidide; lactam N-11)
microsomal CLint at 1 uM [1]: 48 µL/min/mg | Papp at 18 hours, 50 µM [2]: 0.15 ×10⁻⁶ cm/s

CC[C@H](C)[C@@H]1NC(=O)[C@H](CC(C)C)N(C)C(=O)[C@H](Cc2ccccc2)N(C)C(=O)[C@H](CC(C)C)NC(=O)CCCCCc2ccc(cc2)C[C@@H](C(=O)N2CCCCC2)NC(=O)[C@H](C)N(C)C(=O)[C@H](C)N(C)C(=O)CN(C)C(=O)[C@H]([C@@H](C)O)NC(=O)[C@H](Cc2ccccc2)N(C)C(=O)[C@H](C(C)C)N(C)C1=O [DP-875] (L[NMeF][NMeL]I[NMeV][NMeF]T[Sar][NMeA][NMeA][Phe(4-(CH2)5CO)]-Piperidide; lactam N-11)
microsomal CLint at 1 uM [1]: 34 µL/min/mg | Papp at 18 hours, 50 µM [2]: 19 ×10⁻⁶ cm/s

CC[C@H](C)[C@@H]1NC(=O)CCCCc2cccc(c2)C[C@@H](C(=O)N2CCCCC2)NC(=O)[C@H](C)N(C)C(=O)[C@H](CC(C)C)N(C)C(=O)CN(C)C(=O)[C@H]([C@@H](C)O)NC(=O)[C@H](Cc2ccccc2)N(C)C(=O)[C@H](CC(C)C)N(C)C(=O)[C@H](C)NC(=O)[C@H](C(C)C)N(C)C(=O)[C@H](Cc2ccccc2)N(C)C1=O [DP-876] (I[NMeF][NMeV]A[NMeL][NMeF]T[Sar][NMeL][NMeA][Phe(3-(CH2)4CO)]-Piperidide; lactam N-11)
microsomal CLint at 1 uM [1]: 103 µL/min/mg | Papp at 18 hours, 50 µM [2]: 55 ×10⁻⁶ cm/s

CC[C@H](C)[C@H]1C(=O)N[C@@H](CC(C)C)C(=O)N(C)[C@@H](C)C(=O)N(C)[C@@H](Cc2ccccc2)C(=O)NCC(=O)N[C@@H]([C@@H](C)O)C(=O)N[C@@H](Cc2ccccc2)C(=O)N(C)[C@@H](CC(C)C)C(=O)N2CCC[C@H]2C(=O)N[C@H](C(=O)N2CCCCC2)Cc2cccc(c2)CCCCC(=O)N[C@@H](CC(C)C)C(=O)N1C [DP-877] (L[NMeI]L[NMeA][NMeF]GTF[NMeL]P[Phe(3-(CH2)4CO)]-Piperidide; lactam N-11)
microsomal CLint at 1 uM [1]: 43 µL/min/mg | Papp at 18 hours, 50 µM [2]: 4.6 ×10⁻⁶ cm/s

CC[C@H](C)[C@H]1C(=O)N[C@H](C(=O)N2CCCCC2)Cc2ccc(cc2)CCCCCC(=O)N[C@@H]([C@@H](C)O)C(=O)N(C)[C@@H](Cc2ccccc2)C(=O)N[C@@H](CC(C)C)C(=O)N2CCC[C@H]2C(=O)N[C@@H](C(C)C)C(=O)N[C@@H](Cc2ccccc2)C(=O)N(C)CC(=O)N[C@@H](CC(C)C)C(=O)N[C@@H](C)C(=O)N1C [DP-878] (T[NMeF]LPVF[Sar]LA[NMeI][Phe(4-(CH2)5CO)]-Piperidide; lactam N-11)
microsomal CLint at 1 uM [1]: 152 µL/min/mg | Papp at 18 hours, 50 µM [2]: 23 ×10⁻⁶ cm/s

CC[C@H](C)[C@H]1C(=O)N[C@H](C(=O)N2CCCCC2)Cc2ccc(cc2)CCCCCC(=O)N[C@@H](CC(C)C)C(=O)N2CCC[C@H]2C(=O)N[C@@H](C(C)C)C(=O)N[C@@H](Cc2ccccc2)C(=O)N(C)CC(=O)N[C@@H](CC(C)C)C(=O)N[C@@H](C)C(=O)N1C [DP-879] (LPVF[Sar]LA[NMeI][Phe(4-(CH2)5CO)]-Piperidide; lactam N-9)
microsomal CLint at 1 uM [1]: 239 µL/min/mg | Papp at 18 hours, 50 µM [2]: 35 ×10⁻⁶ cm/s

C=C1CCC(=O)N[C@@H](CC(C)C)C(=O)N2CCC[C@H]2C(=O)N(C)[C@@H](C(C)C)C(=O)N[C@@H](Cc2ccccc2)C(=O)N(C)CC(=O)N(C)[C@@H](CC(C)C)C(=O)N[C@@H](C)C(=O)N(C)[C@@H]([C@@H](C)CC)C(=O)N[C@H](C(=O)N2CCCCC2)Cc2ccc1cc2 [DP-880]
microsomal CLint at 1 uM [1]: 490 µL/min/mg | Papp at 18 hours, 50 µM [2]: 34 ×10⁻⁶ cm/s

CC(C)C[C@@H]1NC(=O)CCCCCc2ccc(cc2)C[C@@H](C(=O)N2CCCCC2)NC(=O)[C@H](Cc2ccccc2)N(C)C(=O)[C@H](CC(C)C)N(C)C(=O)CN(C)C(=O)[C@H]([C@@H](C)O)NC(=O)[C@H](C)N(C)C(=O)[C@H](C(C)C)N(C)C(=O)[C@H](C)NC(=O)[C@H](CC(C)C)N(C)C(=O)[C@H](Cc2ccccc2)N(C)C1=O [DP-881] (L[NMeF][NMeL]A[NMeV][NMeA]T[Sar][NMeL][NMeF][Phe(4-(CH2)5CO)]-Piperidide; lactam N-11)
microsomal CLint at 1 uM [1]: 83 µL/min/mg | Papp at 18 hours, 50 µM [2]: 6.8 ×10⁻⁶ cm/s

C=C1CCC(=O)N[C@@H](CC(C)C)C(=O)N(C)[C@@H]([C@@H](C)CC)C(=O)N(C)[C@@H](CC(C)C)C(=O)NCC(=O)N(C)[C@@H](C)C(=O)N[C@@H](Cc2ccccc2)C(=O)N[C@@H]([C@@H](C)O)C(=O)N(C)[C@@H](CC(C)C)C(=O)N[C@@H](Cc2ccccc2)C(=O)N(C)[C@@H](C(C)C)C(=O)N[C@H](C(=O)N2CCCCC2)Cc2cccc1c2 [DP-882]
microsomal CLint at 1 uM [1]: 32 µL/min/mg | Papp at 18 hours, 50 µM [2]: 1.8 ×10⁻⁶ cm/s

CC[C@H](C)[C@H]1C(=O)N(C)[C@@H](C)C(=O)N[C@H](C(=O)N2CCCCC2)Cc2ccc(cc2)CCCCCC(=O)N[C@@H]([C@@H](C)O)C(=O)N(C)[C@@H](Cc2ccccc2)C(=O)N(C)[C@@H](CC(C)C)C(=O)N[C@@H](C(C)C)C(=O)N2CCC[C@H]2C(=O)N(C)[C@@H](Cc2ccccc2)C(=O)N[C@@H](CC(C)C)C(=O)N(C)CC(=O)N1C [DP-883] (T[NMeF][NMeL]VP[NMeF]L[Sar][NMeI][NMeA][Phe(4-(CH2)5CO)]-Piperidide; lactam N-11)
microsomal CLint at 1 uM [1]: 294 µL/min/mg | Papp at 18 hours, 50 µM [2]: 14 ×10⁻⁶ cm/s

CC[C@H](C)[C@H]1C(=O)N[C@@H](Cc2ccccc2)C(=O)N(C)[C@@H](Cc2ccccc2)C(=O)N[C@@H]([C@@H](C)O)C(=O)N2CCC[C@H]2C(=O)N[C@@H](CC(C)C)C(=O)N[C@H](C(=O)N2CCCCC2)Cc2cccc(c2)CCCCC(=O)NCC(=O)N(C)[C@@H](C(C)C)C(=O)N(C)[C@@H](CC(C)C)C(=O)N[C@@H](C)C(=O)N1C [DP-885] (G[NMeV][NMeL]A[NMeI]F[NMeF]TPL[Phe(3-(CH2)4CO)]-Piperidide; lactam N-11)
microsomal CLint at 1 uM [1]: 75 µL/min/mg | Papp at 18 hours, 50 µM [2]: 30 ×10⁻⁶ cm/s
